Experimental data taken from EP0639376A1, “Liquid composition containing amide derivative” (TERUMO KABUSHIKI KAISHA, priority 1993, dated 1995).
Each block holds one compound with its values, some of them ahead of it.

Key:
Assay type in all cases: physicochemical
[1] = Test for stability: percentage of compound remaining after storage at 60°C, measured by liquid chromatography; settings: for remaining at 480 h: buffer with hco-60, Table 5, 0.05 g compound, 1.0 g HCO-60, pH buffer, 60°C, 20 days, read-out: Stability (as percentage of compound remained after stored at 60°C for 20 days)
Protocol: The difference in the stability of Compound (III) was tested, depending on the solubilizer added thereto. The stability was represented by the percentage (%) of the amount of Compound (III) remained after storage. Precisely, each sample formulation shown in Table 2 below was put in a glass tube with a screw cap and stored for 10 days and 20 days both at 60°C, whereupon the percentage of the amount of the compound remained after the storage was measured by liquid chromatography. From the value thus measured, the stability of the compound was evaluated.
Next, to examine the influence of the concentration of the solubilizer on the stability of Compound (III), experiments were carried out where the concentration of the nonionic surfactant to be added was stepwise increased while the concentration of Compound (III) was kept constant. Precisely, each sample formulation shown in Table 3 below was stored for 10 days and 20 days both at 60°C, whereupon the percentage (%) of the amount of Compound (III) remained after the storage was measured by liquid chromatography. On the basis of the thus-measured percentage, the stability of the compound was evaluated.

[2] = Test for solubility: dissolution of the compound observed with the naked eye; settings: Table 5; 0.05 g compound, 1.0 g HCO-60, pH buffer
Protocol: To test the solubility of the above-mentioned compound, various experiments were carried out under different conditions in the presence or absence of a nonionic surfactant.
Formulation No. 1 was prepared by heating and dissolving 0.05 g of Compound (III) and 0.5 g of polyoxyethylene-hardened castor oil (HCO-60) in a beaker at about 60°C followed by gradually adding thereto lactic acid/sodium lactate buffer (pH 5.0) as the pH buffer while stirring to dissolve them.

[3] = Mean particle size of formed micelles by light-scattering photometry; design: key: - : No micelle detected; settings: Compound (III) 0.005 W/V %
Text: It was confirmed that, when the concentration of Compound (III) was 0.005 W/V % and when the concentration of HCO-60 was 0.10 W/V % or more, micelles having a mean particle size of from 16 to 20 nm were formed.

[4] = Solubility of the compound in solvents (description of the substance)

remaining at 480 h [1]: 90.9%
Solubility [2]: Dissolved clear.
SMILES: CCOC(=O)Oc1ccc(/C=C/C(=O)NCCN2CCC(OC(c3ccccc3)c3ccccc3)CC2)cc1OC(=O)OCC [(VI)]

remaining at 480 h [1]: 92.6%
Solubility [2]: Dissolved clear.
SMILES: CCOC(=O)Oc1ccc(/C=C/C=C/C(=O)NCCN2CCC(OC(c3ccccc3)c3ccccc3)CC2)cc1OC(=O)OCC [(VII)]

Mean Particle Size ([3]; HCO-60 0.05 W/V %): -
Mean Particle Size ([3]; HCO-60 0.10 W/V %): 16.2 +/- 3.7 nm
Mean Particle Size ([3]; HCO-60 0.25 W/V %): 19.6 +/- 4.3 nm
Mean Particle Size ([3]; HCO-60 0.50 W/V %): 18.3 +/- 4.5 nm
Mean Particle Size ([3]; HCO-60 1.00 W/V %): 18.8 +/- 4.2 nm
solubility in acetone [4]: easily soluble
solubility in acetonitrile [4]: soluble in acetonitrile to some degree
solubility in dichloroethane [4]: easily soluble
solubility in ethanol [4]: hardly soluble
solubility in water [4]: almost insoluble
stabilization of Compound (III) ([1]; result in words, from Table 3, HCO-60 0.10 W/V % or more): almost satisfactorily stabilized
SMILES: CCOC(=O)Oc1ccc(/C=C/C=C/C(=O)NCCN2CCC(OC(c3ccccc3)c3ccccc3)CC2)cc1OC [Compound (III), 1-[{5'-(3''-methoxy-4''-ethoxycarbonyloxyphenyl)-2',4'-pentadienoyl}aminoethyl]-4-diphenylmethoxypiperidine]

remaining at 480 h [1]: 91.2%
Solubility [2]: Dissolved clear.
SMILES: CCOC(=O)Oc1ccc(/C=C/C(=O)NCCN2CCC(OC(c3ccccc3)c3ccccc3)CC2)cc1OC [Compound (IV)]

remaining at 480 h [1]: 92.1%
Solubility [2]: Dissolved clear.
SMILES: CCOC(=O)Oc1ccc(/C=C/C=C/C(=O)NCCCN2CCN(C(c3ccccc3)c3ccccc3)CC2)cc1OC [Compound (V)]
